Measurements published in US9115127B2 (AMGEN INC., priority 2010, dated 2015).
Counter-ions that a name gives are not always drawn.

Each compound was assayed against T1, wild-type human ALK (cytoplasmic domain, amino acids 1058-1620, N-terminal GST fusion) (Homo sapiens, UniProt Q9UM73) (assay: ALK Inhibition in Enzyme Assay (Lance TR-FRET kinase assay)).
T1 construct: The cytoplasmic domain (amino acids 1058-1620) of wild-type human ALK; GST (N); made in house; host or cells: SF9 insect cells
Format: biochemical
Method in brief: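 TR-FRET read-out (Eu-W1024 PT66 anti-phosphotyrosine plus streptavidin-allophycocyanin, 320 nm excitation) quantified biotinylated peptide phosphorylation by the purified kinase. Reaction ran 90 minutes at room temperature before quenching with 20 mM EDTA in Tris pH 7.5 buffer with NaCl, BSA and Tween-20.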

T1 sequence (Q9UM73 1058-1620): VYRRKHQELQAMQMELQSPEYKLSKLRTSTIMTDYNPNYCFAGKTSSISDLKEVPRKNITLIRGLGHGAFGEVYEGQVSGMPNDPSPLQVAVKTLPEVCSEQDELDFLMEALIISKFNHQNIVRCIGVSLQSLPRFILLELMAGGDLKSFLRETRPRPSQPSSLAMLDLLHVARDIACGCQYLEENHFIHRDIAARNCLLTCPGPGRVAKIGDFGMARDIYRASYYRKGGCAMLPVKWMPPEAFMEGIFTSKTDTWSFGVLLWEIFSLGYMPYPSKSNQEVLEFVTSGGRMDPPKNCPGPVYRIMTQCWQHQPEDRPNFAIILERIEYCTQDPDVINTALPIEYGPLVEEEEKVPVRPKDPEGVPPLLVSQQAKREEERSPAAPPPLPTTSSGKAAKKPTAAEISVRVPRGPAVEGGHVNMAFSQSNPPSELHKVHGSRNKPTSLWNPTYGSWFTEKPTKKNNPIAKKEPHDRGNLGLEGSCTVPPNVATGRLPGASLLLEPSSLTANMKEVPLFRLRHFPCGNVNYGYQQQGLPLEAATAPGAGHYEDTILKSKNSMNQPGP

Row | Structure (SMILES) | IC50 [nM]
1 | CC(C)NC(=O)[C@H]1CC[C@@H](n2/c(=N/C(=O)NC3CCCCC3)[nH]c3cnc(OCCN4CCCCC4)cc32)CC1 [Example 132, cis-4-((E)-2-(Cyclohexylcarbamoylimino)-6-(2-(piperidin-1-yl)ethoxy)-2,3-dihydro-1H-imidazo[4,5-c]pyridin-1-yl)-N-isopropylcyclohexanecarboxamide] | 100 to 1000
2 | CC(C)NC(=O)[C@H]1CC[C@@H](n2/c(=N/C(=O)N3CCOCC3)[nH]c3cnc(OCCN4CCCCC4)cc32)CC1 [Example 133, (E)-N-(1-(cis-4-(Isopropylcarbamoyl)cyclohexyl)-6-(2-(piperidin-1-yl)ethoxy)-1H-imidazo[4,5-c]pyridin-2(3H)-ylidene)morpholine-4-carboxamide] | 100 to 1000
3 | CC(C)NC(=O)[C@H]1CC[C@@H](n2/c(=N/C(=O)N3CCCC3)[nH]c3cnc(OCCN4CCCCC4)cc32)CC1 [Example 134, (E)-N-(1-(cis-4-(Isopropylcarbamoyl)cyclohexyl)-6-(2-(piperidin-1-yl)ethoxy)-1H-imidazo[4,5-c]pyridin-2(3H)-ylidene)pyrrolidine-1-carboxamide] | 50 to 100
4 | NC(=O)[C@H]1CC[C@@H](n2/c(=N/C(=O)c3ccc(F)cc3)[nH]c3cnc(OCCN4CCCCC4)cc32)CC1 [Example 135, (E)-N-(1-(cis-4-Carbamoylcyclohexyl)-6-(2-(piperidin-1-yl)ethoxy)-1H-imidazo[4,5-c]pyridin-2(3H)-ylidene)-4-fluorobenzamide] | < 50
5 | CC(C)NC(=O)[C@H]1CC[C@@H](n2c(N)nc3ccc(CN4CCC(C(C)(C)O)CC4)cc32)CC1 [Example 136, cis-4-(2-Amino-6-((4-(2-hydroxypropan-2-yl)piperidin-1-yl)methyl)-1H-benzo[d]imidazol-1-yl)-N-isopropylcyclohexanecarboxamide] | 1000 to 5000
6 | CC(C)NC(=O)[C@H]1CC[C@@H](n2/c(=N/C(=O)c3cccc(C(F)(F)F)c3)[nH]c3ccc(CN4CCC(C(C)(C)O)CC4)cc32)CC1 [Example 147, (E)-N-(6-((4-(2-Hydroxypropan-2-yl)piperidin-1-yl)methyl)-1-(cis-4-(isopropylcarbamoyl)cyclohexyl)-1H-benzo[d]imidazol-2(3H)-ylidene)-3-(trifluoromethyl)benzamide] | < 50
7 | CC(C)NC(=O)[C@H]1CC[C@@H](n2/c(=N/C(=O)c3ccc(F)c(C(F)(F)F)c3)[nH]c3ccc(CN4CCC(C(C)(C)O)CC4)cc32)CC1 [Example 148, (E)-4-Fluoro-N-(6-((4-(2-hydroxypropan-2-yl)piperidin-1-yl)methyl)-1-(cis-4-(isopropylcarbamoyl)cyclohexyl)-1H-benzo[d]imidazol-2(3H)-ylidene)-3-(trifluoromethyl)benzamide] | < 50
8 | COc1ccc(C(=O)/N=c2\[nH]c3ccc(CN4CCC(C(C)(C)O)CC4)cc3n2[C@H]2CC[C@@H](C(=O)NC(C)C)CC2)cc1 [Example 151, (E)-N-(6-((4-(2-Hydroxypropan-2-yl)piperidin-1-yl)methyl)-1-(cis-4-(isopropylcarbamoyl)cyclohexyl)-1H-benzo[d]imidazol-2(3H)-ylidene)-4-methoxybenzamide] | < 50
9 | COc1ccc(COc2ccc3nc(NC(=O)c4ccc(F)cc4)n([C@H]4CC[C@@H](C(=O)NC(C)C)CC4)c3c2)cc1 [Example 153, 4-Fluoro-N-(6-((4-methoxybenzyl)oxy)-1-(cis-4-((1-methylethyl)carbamoyl)cyclohexyl)-1H-benzimidazol-2-yl)benzamide] | < 50
10 | CC(C)NC(=O)[C@H]1CC[C@@H](n2/c(=N/C(=O)c3ccc(F)cc3)[nH]c3ccc(O)cc32)CC1 [Example 154, 4-Fluoro-N-(6-hydroxy-1-(cis-4-(isopropylcarbamoyl)cyclohexyl)-1H-benzo[d]imidazol-2-yl)benzamide] | < 50
11 | CC(C)NC(=O)[C@H]1CC[C@@H](n2/c(=N/C(=O)c3ccc(F)cc3)[nH]c3ccc(OCCN4CCCCC4)cc32)CC1 [Example 155, (E)-4-Fluoro-N-(1-(cis-4-(isopropylcarbamoyl)cyclohexyl)-6-(2-(piperidin-1-yl)ethoxy)-1H-benzo[d]imidazol-2(3H)-ylidene)benzamide] | < 50
12 | CC(C)NC(=O)[C@H]1CC[C@@H](n2/c(=N/C(=O)c3ccc(F)cc3)[nH]c3cnccc32)CC1 [Example 156, (E)-4-Fluoro-N-(1-(cis-4-(isopropylcarbamoyl)cyclohexyl)-1H-imidazo[4,5-c]pyridin-2(3H)-ylidene)benzamide] | < 50
13 | COc1cc2c(cn1)[nH]/c(=N\C(=O)c1ccc(F)cc1)n2[C@H]1CC[C@@H](C(=O)NC(C)C)CC1 [Example 157, (E)-4-Fluoro-N-(1-(cis-4-(isopropylcarbamoyl)cyclohexyl)-6-methoxy-1H-imidazo[4,5-c]pyridin-2(3H)-ylidene)benzamide] | < 50
14 | COCCOc1cc2c(cn1)[nH]/c(=N\C(=O)c1ccc(F)cc1)n2[C@H]1CC[C@@H](C(=O)NC(C)C)CC1 [Example 159, (E)-4-Fluoro-N-(1-(cis-4-(isopropylcarbamoyl)cyclohexyl)-6-(2-methoxyethoxy)-1H-imidazo[4,5-c]pyridin-2(3H)-ylidene)benzamide] | < 50
15 | CC(C)NC(=O)[C@H]1CC[C@@H](n2/c(=N/C(=O)c3ccc(F)cc3)[nH]c3cnc(Cl)cc32)CC1 [Example 160, (E)-N-(6-Chloro-1-(cis-4-(isopropylcarbamoyl)cyclohexyl)-1H-imidazo[4,5-c]pyridin-2(3H)-ylidene)-4-fluorobenzamide] | < 50
16 | CC(C)NC(=O)[C@H]1CC[C@@H](n2/c(=N/C(=O)c3ccc(F)cc3)[nH]c3ccc(OCCN4CCOCC4)cc32)CC1 [Example 161, (E)-4-Fluoro-N-(1-(cis-4-(isopropylcarbamoyl)cyclohexyl)-6-(2-morpholinoethoxy)-1H-benzo[d]imidazol-2(3H)-ylidene)benzamide] | < 50
17 | CC(C)NC(=O)[C@H]1CC[C@@H](n2/c(=N/C(=O)c3ccc(F)cc3)[nH]c3cnc(O)cc32)CC1 [Example 162, (E)-4-Fluoro-N-(6-hydroxy-1-(cis-4-(isopropylcarbamoyl)cyclohexyl)-1H-imidazo[4,5-c]pyridin-2(3H)-ylidene)benzamide] | < 50
18 | CC(C)NC(=O)[C@H]1CC[C@@H](n2/c(=N/C(=O)c3ccc(F)cc3)[nH]c3cnc(NCCN4CCOCC4)cc32)CC1 [Example 163, (E)-4-Fluoro-N-(1-(cis-4-(isopropylcarbamoyl)cyclohexyl)-6-(2-morpholinoethylamino)-1H-imidazo[4,5-c]pyridin-2(3H)-ylidene)benzamide] | < 50
19 | CC(C)NC(=O)[C@H]1CC[C@@H](n2/c(=N/C(=O)c3ccc(F)cc3)[nH]c3cnc(OCCn4cncn4)cc32)CC1 [Example 164, (E)-N-(6-(2-(1H-1,2,4-Triazol-1-yl)ethoxy)-1-(cis-4-(isopropylcarbamoyl)cyclohexyl)-1H-imidazo[4,5-c]pyridin-2(3H)-ylidene)-4-fluorobenzamide] | < 50
20 | CC(C)NC(=O)[C@H]1CC[C@@H](n2/c(=N/C(=O)c3ccc(F)cc3)[nH]c3cnc(OCCCN4CCOCC4)cc32)CC1 [Example 165, (E)-4-Fluoro-N-(1-(cis-4-(isopropylcarbamoyl)cyclohexyl)-6-(3-morpholinopropoxy)-1H-imidazo[4,5-c]pyridin-2(3H)-ylidene)benzamide] | < 50
21 | CC(C)NC(=O)[C@H]1CC[C@@H](n2/c(=N/C(=O)c3ccc(F)cc3)[nH]c3cc(F)c(OCCN4CCOCC4)cc32)CC1 [Example 166, (E)-4-Fluoro-N-(5-fluoro-1-(cis-4-(isopropylcarbamoyl)cyclohexyl)-6-(2-morpholinoethoxy)-1H-benzo[d]imidazol-2(3H)-ylidene)benzamide] | < 50
22 | CC(C)NC(=O)[C@H]1CC[C@@H](n2/c(=N/C(=O)c3ccc(F)cc3)[nH]c3cnc(OC4CCN(CC(=O)OC(C)(C)C)CC4)cc32)CC1 [Example 167, tert-Butyl 2-(4-((E)-2-(4-fluorobenzoylimino)-1-(cis-4-(isopropylcarbamoyl)cyclohexyl)-2,3-dihydro-1H-imidazo[4,5-c]pyridin-6-yloxy)piperidin-1-yl)acetate] | < 50
23 | CC(C)NC(=O)[C@H]1CC[C@@H](n2/c(=N/C(=O)c3ccc(F)cc3)[nH]c3cnc(OC4CCN(CC(=O)O)CC4)cc32)CC1 [Example 168, 2-(4-((E)-2-(4-Fluorobenzoylimino)-1-(cis-4-(isopropylcarbamoyl)cyclohexyl)-2,3-dihydro-1H-imidazo[4,5-c]pyridin-6-yloxy)piperidin-1-yl)acetic acid hydrochloride] | < 50
24 | CC(C)NC(=O)[C@H]1CC[C@@H](n2/c(=N/C(=O)c3ccc(F)cc3)[nH]c3cnc(OC4CCN(C)CC4)cc32)CC1 [Example 169, (E)-4-Fluoro-N-(1-(cis-4-(isopropylcarbamoyl)cyclohexyl)-6-(1-methylpiperidin-4-yloxy)-1H-imidazo[4,5-c]pyridin-2(3H)-ylidene)benzamide] | < 50
25 | CC(C)NC(=O)[C@H]1CC[C@@H](n2/c(=N/C(=O)c3ccc(F)cc3)[nH]c3ccc(CO)cc32)CC1 [Example 170, (E)-4-Fluoro-N-(6-(hydroxymethyl)-1-(cis-4-(isopropylcarbamoyl)cyclohexyl)-1H-benzo[d]imidazol-2(3H)-ylidene)benzamide] | < 50
26 | CC(C)NC(=O)[C@H]1CC[C@@H](n2/c(=N/C(=O)c3ccc(F)cc3)[nH]c3ccc(CN4CCN(S(C)(=O)=O)CC4)cc32)CC1 [Example 172, (E)-4-Fluoro-N-(1-(cis-4-(isopropylcarbamoyl)cyclohexyl)-6-((4-(methylsulfonyl)piperazin-1-yl)methyl)-1H-benzo[d]imidazol-2(3H)-ylidene)benzamide] | < 50
